PMC8844822, “SARM1 is a multi-functional NAD(P)ase with prominent base exchange activity, all regulated bymultiple physiologically relevant NAD metabolites” (iScience, 2022)
Where two headings read alike, the source gives them in different places.

Experiments:
[1] = target: T1, hSARM1 SAM-TIR (Homo sapiens, UniProt Q6SZW1); experiment: Base exchange reactions at neutral pH (HPLC); format: biochemical; settings: NAD […] alone or + AcPyr 2 mM / Vacor 0.5 mM / Na 2 mM
T1 construct: made in house
T1 sequence (Q6SZW1 409-724): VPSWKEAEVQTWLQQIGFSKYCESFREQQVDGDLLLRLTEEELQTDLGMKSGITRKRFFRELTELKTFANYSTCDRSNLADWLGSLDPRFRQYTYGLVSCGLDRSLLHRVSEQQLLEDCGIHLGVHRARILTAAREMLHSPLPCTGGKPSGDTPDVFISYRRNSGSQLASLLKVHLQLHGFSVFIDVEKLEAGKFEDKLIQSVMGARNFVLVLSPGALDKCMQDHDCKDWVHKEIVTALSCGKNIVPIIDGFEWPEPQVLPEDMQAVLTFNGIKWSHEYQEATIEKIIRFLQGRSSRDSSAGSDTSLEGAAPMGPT
Protocol: (§1) Multiple time stops from individual assays as above were analyzed for linearity, then extents of hydrolysis (white bars), cyclization (red bars), or base exchange (black bars) were calculated from each corresponding product as shown in Figure 1B and STAR methods. […] See also Figures S3–S5, and Table S1
(§2) Rates were calculated as follows.

[2] = target: T2, hCD38 (Homo sapiens, UniProt P28907); experiment: Base exchange reactions at neutral pH (HPLC); format: biochemical; settings: NAD […] alone or + AcPyr 2 mM / Vacor 0.5 mM / Na 2 mM
T2 construct: a soluble fragment Val43-Ile300 with 6x-His tag at C terminus; 6xHis (C); purchased R&D Systems
T2 sequence (P28907 43-300): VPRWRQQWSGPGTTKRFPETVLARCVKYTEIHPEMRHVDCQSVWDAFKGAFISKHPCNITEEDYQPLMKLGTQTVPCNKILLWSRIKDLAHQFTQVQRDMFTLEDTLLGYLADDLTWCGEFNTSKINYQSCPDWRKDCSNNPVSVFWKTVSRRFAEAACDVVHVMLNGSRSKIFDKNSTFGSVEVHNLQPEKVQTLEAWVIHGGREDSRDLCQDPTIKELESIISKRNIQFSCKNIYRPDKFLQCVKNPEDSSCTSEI
Protocol: as §1
(§3) hSARM1 species were routinely assayed by the NAD/NADH-Glo^TM Assay (Promega) while both Aplysia cyclase and CD38 were assayed by fluorometry using ϵNAD ([Orsomando et al., 2000]). […] Other reagents used in addition to, or in place of those above are detailed in text or in figure legends, for example metal ions, free bases, dinucleotide analogues, mononucleotides, and ribosides. Assays were all carried out at 25°C except for temperature studies. Reactions were stopped by HClO4/K2CO3 and analysed by C18-HPLC as reported ([Mori et al., 2014]). Only the acid labile NADH and NADPH were treated with 1 N NaOH and neutralized using 1:1 vol of 1.73 M KH2CO3 while the highly hydrophobic metabolites vacor, VAD, VMN and VR, were analysed by a modified C18-HPLC method ([Buonvicino et al., 2018]). Reaction products were quantified from peak areas (see Figure 2A) based on coelution with standards (except for cyclic products from NAD analogues that were not available and were attributed based on UV-spectra and retention times as predicted). Rates were calculated as follows. Hydrolysis and cyclization were measured from product generation from the respective individual dinucleotide substrate used, e.g., free and cyclic ADP-ribosyl moieties from NAD (Figure 1B). A basal value for hydrolysis/cyclization was taken as sum of these latter two products. In addition to that value, base exchange or transglycosidation was calculated from the expected dinucleotide analog formed in the presence of the corresponding free base, e.g., AcPyrAD from AcPyr and NAD.

[3] = target: T3, hSARM1 full length (Homo sapiens, UniProt Q6SZW1); experiment: Base exchange reactions at neutral pH (HPLC); format: biochemical; settings: hSARM1 full length, no trigger; NAD […] alone or + AcPyr 2 mM / Vacor 0.5 mM / Na 2 mM; pH 7.5
T3 construct: Human recombinant SARM1 full length proteins (wild-type and E642A mutant); made in house
T3 sequence (Q6SZW1 28-724): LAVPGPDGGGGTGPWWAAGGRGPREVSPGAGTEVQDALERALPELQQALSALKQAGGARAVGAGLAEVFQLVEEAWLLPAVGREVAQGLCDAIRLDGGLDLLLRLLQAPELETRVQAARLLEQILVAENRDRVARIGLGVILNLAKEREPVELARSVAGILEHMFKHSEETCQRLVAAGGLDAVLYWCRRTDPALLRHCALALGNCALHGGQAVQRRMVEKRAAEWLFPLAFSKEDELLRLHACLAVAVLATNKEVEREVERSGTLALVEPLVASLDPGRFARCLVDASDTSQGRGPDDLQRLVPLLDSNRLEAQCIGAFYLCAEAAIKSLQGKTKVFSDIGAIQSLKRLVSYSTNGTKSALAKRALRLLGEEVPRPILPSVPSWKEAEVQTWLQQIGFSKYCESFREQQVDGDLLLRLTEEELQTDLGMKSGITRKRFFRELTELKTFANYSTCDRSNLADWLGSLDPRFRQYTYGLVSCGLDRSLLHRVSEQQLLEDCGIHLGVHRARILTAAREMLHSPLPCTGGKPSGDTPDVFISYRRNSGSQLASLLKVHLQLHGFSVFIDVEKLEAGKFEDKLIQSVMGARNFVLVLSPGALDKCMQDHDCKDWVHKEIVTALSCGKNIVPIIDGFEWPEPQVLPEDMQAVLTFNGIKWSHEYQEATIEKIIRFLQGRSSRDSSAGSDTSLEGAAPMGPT
Protocol: as §1, §3

[4] = target: T2, hCD38; experiment: NAD(P)ase activity by HPLC (kinetics, substrates, metal ions); format: biochemical
Protocol: as §3
(§4) The kinetic parameters were calculated from initial rates obtained from replicates via best-fitting analysis using the following Equation 1 for CD38 and Aplysia cyclase, or Equation 2 for hSARM1 SAM-TIR, or Equation 3 for hSARM1 full length(Equation 1) V =Vmax[S]/Km+[S] […] In that case, the resulting single curves were fit to Equation 3 as above to evaluate any competition between NMN and the substrate used (see Table 1).

[5] = target: T3, hSARM1 full length; experiment: as above; format: biochemical; settings: for basal rate: substrate alone […]
Protocol: as §3, §4

[6] = target: T1, hSARM1 SAM-TIR; format: biochemical
Protocol: as §3, with “In addition to that value, base exchange or transglycosidation was calculated from the expected dinucleotide analog formed in the presence of the corresponding free base, e.g., AcPyrAD from AcPyr and NAD.” left out

[7] = target: T4, Aplysia californica ADP ribosyl cyclase (Aplysia californica, UniProt P29241); experiment: Base exchange reactions at neutral pH (HPLC); format: biochemical; parameters: purchased Merck A8950; settings: NAD […] alone or + AcPyr 2 mM / Vacor 0.5 mM / Na 2 mM
T4 sequence (P29241 25-282): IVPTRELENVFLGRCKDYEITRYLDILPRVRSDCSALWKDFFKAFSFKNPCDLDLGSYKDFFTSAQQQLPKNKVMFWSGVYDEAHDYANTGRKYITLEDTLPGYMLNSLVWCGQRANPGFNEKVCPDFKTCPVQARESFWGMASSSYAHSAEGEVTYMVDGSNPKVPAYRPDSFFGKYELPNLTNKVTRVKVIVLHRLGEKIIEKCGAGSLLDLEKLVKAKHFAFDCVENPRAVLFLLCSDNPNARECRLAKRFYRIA
Protocol: as §1, §2

[8] = target: T4, Aplysia californica ADP ribosyl cyclase
Protocol: as §3, §4

NC(=O)c1ccc[n+]([C@@H]2O[C@H](COP(=O)([O-])OP(=O)(O)OC[C@H]3O[C@@H](n4cnc5c(N)ncnc54)[C@H](O)[C@@H]3O)[C@@H](O)[C@H]2O)c1 [NAD, nicotinamide adenine dinucleotide]
rate [1]: 342.4 ±56.3 mU/mg | rate [2]: 7798 ±1624 mU/mg | rate [3]: 21.8 ±0.30 mU/mg | hydrolysis, share of NAD consumption ([4]; hCD38): > 98% | specific activity, basal NADase (hydrolysis or cyclization combined) ([4]; hCD38, saturating NAD): ~7 U/mg | Ki ([5]; SARM1, read-out: Kia): ~300 µM | cyclization, share of total substrate consumption ([5]; hSARM1, no free pyridines): ~10% | hydrolysis, share of substrate consumption ([5]; hSARM1, no free pyridines): ~90% | specific activity, basal NADase (hydrolysis or cyclization combined) ([5]; hSARM1, saturating NAD): ~0.02 U/mg | basal rate ([5]; hSARM1 full length 14.6 µg/ml, 30 min, 25 °C (Figure S2)): 15.8 mU/mg | Kis (catalytic site) ([5]; hSARM1 full length +NMN 5μM, n=1): >8000 µM | Ki ([5]; hSARM1 full length +NMN 5μM, n=1, read-out: Kia (allosteric site)): 385 µM | Kis (catalytic site) ([5]; hSARM1 full length +NMN 10μM, n=1): >8000 µM | Ki ([5]; hSARM1 full length +NMN 10μM, n=1, read-out: Kia (allosteric site)): 415 µM | Kis (catalytic site) ([5]; hSARM1 full length +NMN 20μM, n=1): >8000 µM | Ki ([5]; hSARM1 full length +NMN 20μM, n=1, read-out: Kia (allosteric site)): 787 µM | Kis (catalytic site) ([5]; hSARM1 full length +NMN 50μM, n=1): >8000 µM | Ki ([5]; hSARM1 full length +NMN 50μM, n=1, read-out: Kia (allosteric site)): 1200 µM | basal rate ([5]; hSARM1 full length WT 5.4 µg/ml, 6 hours, 25 °C (Figure S3)): 26.4 mU/mg | Kis (inhibition, catalytic site on TIR domain) ([5]; hSARM1 full length, no NMN): >8000 µM | Ki ([5]; hSARM1 full length, no NMN, read-out: Kia (inhibition, allosteric site on ARM domain)): 324 ± 24.6 µM | NAD concentration at maximum NADase activity ([5]; hSARM1 full length, activity falls to almost zero at 4 mM): 0.25 mM | Kis (inhibition, catalytic site) [6]: >8000 µM | rate [7]: 14712 ±399 mU/mg | cyclization, share of NAD consumption [8]: > 98% | specific activity, basal NADase (hydrolysis or cyclization combined) ([8]; saturating NAD): ~50 U/mg
